Assay results as given in patent publication US9675593B2, “Anti-fibrotic pyridinones” (InterMune, Inc., priority 2012, dated 2017).

Tested on: TGF-b induced Endothelin-1 (ET-1) production
Experiment: ET-1 assay: inhibitory effect on TGF-b induced endothelin-1 production
Type: cell-based
Conditions: Homo sapiens, Fibroblast; fibroblasts, stimulant (TGFb, serum, LPA etc), ET-1 by ELISA
Description: Assay of Inhibitory Effect on TGF-b induced Endothelin-1 Production
Fibroblasts (primary human lung and dermal, HFL-1, 3T3 etc) are seeded in 96-well plates at ˜15000 cells/well and serum starved for 0-48 hours. After media exchange, compounds serially diluted in DMSO are added to the cells. After a brief incubation of ˜30 min, stimulants (TGFb, serum, LPA etc) are added followed by further incubation for 16-48 hours. Media is then harvested and stored frozen in plate format for later endothelin-1 (ET-1) determination by ELISA. Toxicity measurements are made using the ATPlite kit (Perkin-Elmer). ET-1 is quantified using an ELISA kit (R&D Systems). The amount of ET-1 produced in the assay wells are back-calculated using the ELISA standard. The ability of a compound to inhibit ET-1 production is typically analyzed by fitting dose-response curves to a 4-parameter logistic function to obtain an EC50 value. A measure of cytotoxicity (CC50) is likewise reported from the same experiment using the ATPlite data.

First: O=C(Nc1cc(=O)n(-c2ccc(OC(F)(F)F)cc2)cc1-c1ccc(F)cc1)Oc1ccccc1 [Compound 113]
Second: O=c1ccc(-c2ccnnc2)cn1-c1ccc(OC(F)(F)F)cc1 [Compound 347]
The EC50 of the first is higher: greater than 200 µM for the first, 50 to 200 µM for the second.

`Cc1cc(-c2cnn(C)c2)cn(-c2ccc(OC(F)(F)F)cc2)c1=O` [Compound 352] gave an EC50 of 50 to 200 µM.
